Source: patent US20100151572A1, “ANTI-TUMORAL COMPOSITIONS METHODS” (priority 2005, published 2010)

What was measured:
[1] = Maximally tolerated dose of prodrug in mice; assay type: in vivo; settings: for MTD in mice bearing tumors that express E. coli PNP: versus mice without PNP tumors
Procedure: For experiments shown in FIG. 7, sixteen mice are implanted subcutaneously with D54 parental, no PNP expression cells, D54/PNP MuLv, approximately 250 PNP units), or D54/lentiPNP, […] PNP units tumor cells as described for efficacy evaluations. When tumors are approximately 200 mg the mice are injected intraperitoneally with 20 mg/kg 3H-F-dAdo. This dose of F-dAdo is the maximally tolerated dose of F-dAdo when given 5 times daily for 3 consecutive days. Four mice from each group are sacrificed 5, 15, 30, and 60 minutes after injection of F-dAdo, and plasma samples were obtained. The amount of F-Ade is determined in each plasma sample using reverse phase HPLC, as described.
There is no difference in the F-Ade plasma levels in mice bearing tumors with different levels of E. coli PNP activity, which is consistent with the fact that the MTD of F-dAdo is not reduced in mice bearing tumors that express E. coli PNP.
A similar experiment is conducted with F-araAMP. […] The limit of detection in these experiments with fludarabine is approximately 1 micromolar. As with F-dAdo, the MTD of F-araAMP is not reduced in mice bearing tumors that express E. coli PNP (either from lentivirus or MuLv), or when given in combination with vectors that express E. coli PNP.

[2] = F-Ade plasma levels after prodrug injection in tumor-bearing mice; assay type: in vivo
Procedure: Measurements of generation and clearance of circulating F-Ade are made by HPLC for example. Radiolabeled prodrug is obtained from Moravek Biochemicals and injected into mice by the same route and dosage used in efficacy experiments for comparison. Plasma samples are removed at increasing time intervals after injection of prodrug and analyzed by reverse-phase HPLC for parent compound and base. Identification of prodrug and F-Ade is by HPLC as described above.
When tumors are approximately 200 mg the mice are injected intraperitoneally with 20 mg/kg 3H-F-dAdo. […] Four mice from each group are sacrificed 5, 15, 30, and 60 minutes after injection of F-dAdo, and plasma samples were obtained. The amount of F-Ade is determined in each plasma sample using reverse phase HPLC, as described.
A similar experiment is conducted with F-araAMP. […] The limit of detection in these experiments with fludarabine is approximately 1 micromolar.

[3] = Systemic dose response tolerability in mice, human dose by Freireich formula; assay type: in vivo
Text: The formula of Freireich et al., Cancer Chemother. Rep., 50:219 244, (1966) can be used to determine the maximum tolerated dose of substrate for a human subject. […] This amount or slightly less should be tolerated in humans with minimal side effects. Furthermore, it is understood that modes of administration that permit the substrate to remain localized at or near the site of the tumor will be effective at lower doses than systemically administered substrates.

[4] = test system: D54 tumors (no PNP expression); test: Control D54 tumors without PNP expression, drug treatment in vivo
[5] = cited from earlier work
[6] = test system: D54 glioma tumors (lentivirus PNP); test: D54 tumors expressing E. coli PNP from lentivirus, prodrug treatment in vivo; design: species or system human
Text: Syngeneic models are also used.
D54 glioma tumors are established from a stable cell line expressing E. coli PNP by a strong, CMV-based promoter in a lentiviral vector. FIG. 10 illustrates results. Open Circles: Tumors established from 10% PNP expressing/90% non-expressing tumor cells; PNP activity 9600±1300 units on day 14. Open Triangles: 5% expressing, 95% non-expressing tumor cells; PNP activity 5500±1700 units. Open Squares: Tumors established from 2.5% expressing, 97.5% non-expressing (PNP activity 3600±530 units). Closed symbols depict growth of corresponding (10%, 5%, 2.5%) PNP tumors treated with vehicle (saline control). At least six animals are studied per group. Identically treated animals from each study arm are sacrificed just prior to initiation of MeP-dR therapy (day 14) to measure intratumoral PNP acitivity. […] These experiments test the influence of substantially higher PNP activities on bystander killing in vivo. PNP activity in 300 mg tumors comprised of 100% lentivirus transduced cells is found to be approximately 126,000 PNP units (one unit=1 nmole MeP-dR converted per mg tumor tissue per hour). When the level of E. coli PNP is studied using lentiviral expression, improvements in bystander killing are observed as shown in FIG. 10.
FIG. 12 depicts a study in which 100% of cells express E. coli PNP using lentivirus. Complete regression and cures of tumors (12 of 12) are obtained with F-araAMP following a 3 day treatment schedule. […] Adjusting the schedule of F-araAMP may also improve bystander killing in vivo (FIG. 16).
Tumors in which 100% of cells expressed E. coli PNP are treated with a maximally tolerated dose (MTD, 100 mg/kg schedule, open circles) or half the MTD (closed triangles). Six animals are included per treatment group. […] PNP activity in these tumors is 126,000±16,000 units on the day of drug therapy.
Tumors are established from an inoculum in which 10% of cells expressed E. coli PNP. PNP expression on the day of drug treatment is 14,200±681 PNP units. Anti-tumor efficacy is greater at 100 mg/kg F-araAMP (open circles) than at 50 mg/kg (closed triangles) or 25 mg/kg (open triangles) given over a standard 3 day schedule (q2h×5, q1d×3 days).
D54 glioma tumors are established with decreasing proportions of PNP expressing cells (and increasing non-expressing (parental) cells). (open symbols: F-araAMP therapy; closed symbols: no prodrug therapy; circles: 2.5%; triangles 5%, and squares 10% PNP transduced cells). F-araAMP was 100 mg/kg q2h×5, q1d×3.
Tumors comprised of 5% PNP expressing cells and 2 different fludarabine schedules are shown.

D54 human glioma tumors = test: Ad-PNP injection of D54 tumors followed by F-araAMP; assay type: in vivo
Procedure: D54 human glioma tumors (appx. 250 mg) are injected with an Ad-PNP (2×10^9 PFU, open circles) or saline (closed circles). PNP activity in tumor extracts taken two days after vector administration is approximately 5000 PNP units.

[7] = Safety analysis in flank and CNS tumor models with PNP/F-araAMP; assay type: in vivo
[8] = test system: D54 glioma tumors (MuLv-PNP transduced); test: D54 tumors expressing E. coli PNP from MuLV, prodrug treatment in vivo
Procedure: For example, in one in vivo tumor model, tumors are established in animals by subcutaneous implantation of about 10^7 cells into the axillary region of 6-10 mice. Athymic (or scid) mice are used for models of certain human tumors including cells such as D54, HCT-15, and SR475 head/neck. Syngeneic models are also used. For instance, mouse tumors are established using Colon 26 and G26 glioma cells.
The resulting solid tumors are measured twice weekly in two dimensions and the mass calculated using the formula for a prolate ellipsoid, [length (mm)×width^2 (mm)]/2=mg, assuming unit density. The data will permit the determination of a tumor volume doubling time, % “no takes”, and % spontaneous regressions.
PNP expression in MuLv was driven by an SV40 promoter. Mice are given non-absorbable antibiotics in their drinking water prior to treatment with high doses of MeP-dR (e.g. 168 mg/kg/d×3d) to minimize intestinal cleavage of the compound (Bharara, S., et al., 2005, Human Gene Therapy 16:339-347.). Antibiotics are not co:administered for lower doses of MeP-dR, or with less avid substrates such as fludarabine.

human glioma tumors = test: HSV-PNP intratumoral inoculation of human glioma tumors in mice; assay type: in vivo; settings: intratumoral MeP-dR 168 mg/kg daily x 3 days with HSV-PNP
Procedure: Using HSV-PNP, a composition including 17 million pfu of the virus in 50 microliters is administered on day 16 following establishment of human glioma tumors in mice. HSV-PNP by itself slows growth of tumors following intratumoral inoculation, approximately 20 days delay to one tumor doubling.

HeLa cells = test: Ad-PNP mediated cell killing in vitro, crystal violet staining; assay type: cell-based, human; settings: MeP-dR 40 micrograms/milliliter, adenoviral MOI 0.1-100, stained 6 days post infection
Procedure: Confluent HeLa cells are infected with Ad-PNP at various MOIs. MeP-dR is added at 40 micrograms/milliliter in one set of cells at 24 hours post infection. At 6 days post infection, all cultures are stained with Crystal Violet to visualize living cells.
FIG. 17 depicts results using an Ela deleted adenoviral vector encoding E. coli PNP as described herein.

[9] = test system: Nc1nc(F)nc2c1ncn2[C@H]1C[C@H](O)[C@@H](CO)O1; test: purified protein, by the assay type; assay type: biochemical; settings: other: substrate of E. coli PNP
Text: (§1) Table 1 describes the kinetic constants underlying these enzymatic reactions with E. coli PNP.

[10] = test system: Cc1ncnc2c1ncn2[C@H]1C[C@H](O)[C@@H](CO)O1; test: purified protein, by the assay type; assay type: biochemical; settings: other: substrate of E. coli PNP
Text: as §1

[11] = test system: Nc1nc(F)nc2c1ncn2[C@@H]1O[C@H](CO)[C@@H](O)[C@@H]1O; test: purified protein, by the assay type; settings: other: substrate of E. coli PNP

Nc1nc(F)nc2c1ncn2[C@H]1C[C@H](O)[C@@H](CO)O1 [2-F-dAdo, 2-fluoro-2′-deoxyadenosine]
maximally tolerated dose ([1]; mouse, in vivo, 3 days): 20 mg/kg | MTD in mice bearing tumors that express E. coli PNP [1]: not reduced | F-Ade plasma levels in mice bearing tumors with different levels of E. coli PNP activity ([2]; 20 mg/kg 3H-F-dAdo ip, 5, 15, 30, 60 min, D54 parental, D54/PNP MuLv, D54/lentiPNP tumors): no difference

Cc1ncnc2c1ncn2[C@@H]1O[C@H]([C@H](C)O)[C@@H](O)[C@H]1O [5′-methyl(talo)MeP-R]
human dosage determined by formula of Freireich ([3]; 200 mg/kg times 3, from mouse data): 600 mg/m^2 | tolerability ([3]; mice, systemic, 200 mg per kg per day for 3 days (3 doses total)): well tolerated

O=NN(CCCl)C(=O)NCCCl [BCNU]
activity against D54 tumors ([4]; at maximally tolerated doses): minimal activity

Nc1nc(F)nc2c1ncn2[C@@H]1O[C@H](CO)[C@@H](O)[C@@H]1O [F-araA, 9-(beta-D-arabinofuranosyl)-2-fluoroadenine]
circulating half life ([5]; in vivo): 50 min | peak levels compared with MeP-dR ([5]; in vivo): significantly higher

Nc1nc(F)nc2c1ncn2[C@@H]1O[C@H](COP(=O)(O)O)[C@@H](O)[C@@H]1O [F-araAMP]
anti-tumor effect vs non-treatment groups ([6]; 2.5%, 5%, 10% PNP transduced cells, 100 mg/kg q2h x5, q1d x3, p<0.001): significantly different from non-treatment groups | anti-tumor effect vs non-treatment group ([6]; 5% PNP expressing cells, 2 different schedules, p<0.001): significantly different from non-treatment group | anti-tumor effect vs non-treatment group ([6]; 10% PNP cells, 100, 50 or 25 mg/kg q2h x5, q1d x3 days, p<0.001, efficacy greater at 100 mg/kg): significantly different from non-treatment group | tolerability during tumor regressions ([6]; 100% PNP tumors, F-araAMP MTD or half MTD): without excessive weight loss or other undesired sequelae | complete regression and cures of tumors ([6]; 100% of cells express PNP, F-araAMP 3 day schedule, MTD (100 mg/kg) or half the MTD, six animals per group): 12 of 12 and cured of their tumors | anti-tumor effects at low proportion of PNP cells ([6]; as few as 2.5% of tumor cells express PNP): Anti-tumor effects are observed | prodrug in plasma ([5]; 4 hours after injection of F-araAMP): very little prodrug in plasma | effect on control D54 tumors ([4]; no PNP expression, GFP control transgene, standard 3 day schedule): no effect | maximally tolerated dose ([1]; given 5 times daily for 3 consecutive days, mice): 100 mg/kg | MTD in mice bearing tumors that express E. coli PNP [1]: not reduced | anti-tumor effect together with Ad-PNP (D54 human glioma tumors; Ad-PNP 2x10^9 PFU, tumors appx. 250 mg, p<0.002 vs virus alone or no treatment): slowing of tumor growth | toxicity in the study (D54 human glioma tumors; Ad-PNP together with F-araAMP): No limiting weight loss, animal deaths or other toxicities | F-Ade in plasma of mice bearing tumors expressing E. coli PNP ([2]; 100 mg/kg F-araAMP, limit of detection approximately 1 micromolar): no F-Ade is detected | animal longevity [7]: improved animal longevity | toxicity as judged by weight loss or lethality [7]: have not indicated significant toxicity | duration of regressions ([8]; 100% of cells expressed E. coli PNP (MuLv), tumors subsequently escape): ~30 days | bystander killing in vivo ([8]; F-araAMP following E. coli PNP transduction with MuLv): little or no bystander killing

Cc1ncnc2c1ncn2[C@H]1C[C@H](O)[C@@H](CO)O1 [MeP-dR, 9-(2-deoxy-beta-D-ribofuranosyl]-6-methylpurine]
anti-tumor effect with HSV-PNP (human glioma tumors): improves tumor regressions and arrest of tumor growth | antitumor effects vs non-treatment groups ([6]; MeP-dR, 10%, 5%, 2.5% PNP expressing cells, p<0.05 (2.5%), p<0.005 (5% and 10%)): significantly different from non-treatment groups | circulating half life ([5]; in vivo): ~20 min | half life in serum ([5]; in vivo): 15 to 20 min | cell killing in combination with Ad-PNP (HeLa cells): sufficient to eliminate populations of cancer cells | anti-tumor effect vs non-treatment groups ([8]; 20% PNP-expressing / 80% parental cells, MeP-dR, p<0.002): significantly different from non-treatment groups | tolerability of treatments ([8]; MeP-dR, 20% PNP (MuLv) and parental tumors): well tolerated without limiting weight loss or lethality

Ad-PNP
PNP activity in tumor extracts (D54 human glioma tumors; two days after vector administration, 2x10^9 PFU): approximately 5000 PNP units

E. coli PNP (Escherichia coli K-12)
Km [9]: 22 µM | Vmax [9]: 7.08 µmol/min/mg | Km [10]: 125 µM | Vmax [10]: 24.3 µmol/min/mg | Km [11]: 960 µM | Vmax [11]: 0.0983 µmol/min/mg
